# Experimental data reported in PMC6061700 (Toxicological Sciences, 2018).
# Read-outs that look alike come from different tables or passages of the source. Marks after values point to notes of the source that are not given here.
# Assays:
# [1] = system: Axiogenesis [AXG] human stem cell-derived cardiomyocytes; settings: for EAD occurrence (proportion of replicates exhibiting EADs): AXG; for FPDc20 concentration (20% increase in FPDc): human
# [2] = system: Cellular Dynamics International [CDI] human stem cell-derived cardiomyocytes
# [3] = system: Stanford Cardiovascular Institute [SCI] human stem cell-derived cardiomyocytes; settings: for EAD occurrence (proportion of replicates exhibiting EADs): study 10, SCI, AXN
# [4] = system: human induced pluripotent stem cell-derived cardiomyocytes (hiPSC-CMs)
# [5] = free clinical Cmax; ref Kramer et al. (2013); cited from earlier work
# [6] = 20% increase in FPDc, median across qualified studies
smiles,measurement,setting,value
O=C(NCC1CCCCN1)c1cc(OCC(F)(F)F)ccc1OCC(F)(F)F (stereo not shown) [Flecainide],EAD occurrence (proportion of replicates exhibiting EADs),"[1]; study 4, MCS, 3 µM",1/3
same,EAD occurrence (proportion of replicates exhibiting EADs),"[2]; study 5, CDI, AXN, 1 µM",2/4
same,EAD occurrence (proportion of replicates exhibiting EADs),"[2]; study 5, CDI, AXN, 3 µM",1/4
same,EAD occurrence (proportion of replicates exhibiting EADs),"[2]; study 6, CDI, AXN, 1 µM",1/3
same,EAD occurrence (proportion of replicates exhibiting EADs),"[2]; study 6, CDI, AXN, 3 µM",1/3
same,EAD occurrence (proportion of replicates exhibiting EADs),"[2]; study 7, CDI, MCS, 3 µM",3/3
same,EAD occurrence (proportion of replicates exhibiting EADs),"[2]; study 8, CDI, MCS, 3 µM",4/4
same,EAD occurrence (proportion of replicates exhibiting EADs),"[2]; study 9, CDI, ACA, 3 µM",3/3
same,FPDc20 concentration (20% increase in FPDc),[3]; human,1 µM
same,EAD occurrence (proportion of replicates exhibiting EADs),[3]; 1 µM,1/3
same,EAD occurrence (proportion of replicates exhibiting EADs),[3]; 3 µM,2/3
same,FPDc20: median,[4]; [6],1 µM
CC(C)(Oc1ccc(Cl)cc1)C(=O)NC1C2CC3CC1CC(NS(C)(=O)=O)(C3)C2 (stereo not shown) [JNJ303],prolongation of FPD and FPDc,"[2]; single example study, CDI myocytes, highest concentration tested (300 nM)",~10%
same,EAD occurrence,"[4]; across all studies, any concentration",No EADs
Cc1cccc(C)c1OCC(C)N (stereo not shown) [Mexiletine],FPDc20 concentration (20% increase in FPDc),[1],30 µM
same,EAD occurrence (proportion of replicates exhibiting EADs),[2]; human,3/3
same,FPDc20: median,[4]; human,30 µM
same,FPDc20: span,[4]; human,0.5 log unit
same,studies in which FPDc20 was detected,[4]; human,3 of 8
COc1c(N2C[C@@H]3CCCN[C@@H]3C2)c(F)cc2c(=O)c(C(=O)O)cn(C3CC3)c12 [Moxifloxacin],FPDc20 concentration (20% increase in FPDc),[1],100 µM
same,EAD occurrence (proportion of replicates exhibiting EADs),"[2]; study 6, CDI, AXN, 100 µM",3/3
same,EAD occurrence (proportion of replicates exhibiting EADs),"[2]; study 9, CDI, ACA, 30 µM",1/3
same,EAD occurrence (proportion of replicates exhibiting EADs),"[2]; study 9, CDI, ACA, 100 µM",2/3
same,FPDc20 concentration (20% increase in FPDc),[3]; human,30 µM
same,EAD occurrence (proportion of replicates exhibiting EADs),[3]; 30 µM,1/3
same,EAD occurrence (proportion of replicates exhibiting EADs),[3]; 100 µM,2/3
same,FPDc20: median,[4]; [6],100 µM
same,Free Drug (free Cmax),[5],10.96* µM
COC(=O)C1=C(C)NC(C)=C(C(=O)OC)C1c1ccccc1[N+](=O)[O-] [Nifedipine],FPDc20 concentration (20% decrease in FPDc),[3]; human,0.3 µM
same,EAD occurrence,[4],No EADs
same,FPDc20: median,[4]; human,0.1 µM
same,FPDc20: span,[4]; human,0.5 log unit
C=C[C@H]1C[N@@]2CC[C@H]1C[C@@H]2[C@@H](O)c1ccnc2ccc(OC)cc12 [Quinidine],EAD occurrence (proportion of replicates exhibiting EADs),"[1]; study 1, AXN, 10 µM",3/3
same,EAD occurrence (proportion of replicates exhibiting EADs),"[1]; study 2, AXN, 10 µM",2/3
same,EAD occurrence (proportion of replicates exhibiting EADs),"[1]; study 4, MCS, 10 µM",3/3
same,EAD occurrence (proportion of replicates exhibiting EADs),"[2]; study 5, CDI, AXN, 10 µM",2/3
same,EAD occurrence (proportion of replicates exhibiting EADs),"[2]; study 6, CDI, AXN, 1 µM",3/3
same,EAD occurrence (proportion of replicates exhibiting EADs),"[2]; study 6, CDI, AXN, 3 µM",3/3
same,EAD occurrence (proportion of replicates exhibiting EADs),"[2]; study 7, CDI, MCS, 3 µM",1/3
same,EAD occurrence (proportion of replicates exhibiting EADs),"[2]; study 7, CDI, MCS, 10 µM",3/3
same,EAD occurrence (proportion of replicates exhibiting EADs),"[2]; study 8, CDI, MCS, 10 µM",4/4
same,EAD occurrence (proportion of replicates exhibiting EADs),"[2]; study 9, CDI, ACA, 1 µM",1/3
same,EAD occurrence (proportion of replicates exhibiting EADs),"[2]; study 9, CDI, ACA, 3 µM",3/3
same,EAD occurrence (proportion of replicates exhibiting EADs),"[2]; study 9, CDI, ACA, 10 µM",2/3
same,FPDc20 concentration (20% increase in FPDc),[3]; human,1 µM
same,EAD occurrence (proportion of replicates exhibiting EADs),[3]; 1 µM,2/3
same,EAD occurrence (proportion of replicates exhibiting EADs),[3]; 3 µM,3/3
same,FPDc20: median,[4]; [6],1 µM
same,FPDc20: span,"[4]; 20% increase in FPDc, span across qualified studies",1 log unit
same,Free Drug (free Cmax),[5],3.237* µM
COc1ccccc1OCC(O)CN1CCN(CC(=O)Nc2c(C)cccc2C)CC1 (stereo not shown) [Ranolazine],EAD occurrence (proportion of replicates exhibiting EADs),"[1]; study 4, MCS, 30 µM",3/4
same,EAD occurrence (proportion of replicates exhibiting EADs),"[2]; study 6, CDI, AXN, 10 µM",3/3
same,EAD occurrence (proportion of replicates exhibiting EADs),"[2]; study 6, CDI, AXN, 30 µM",3/3
same,EAD occurrence (proportion of replicates exhibiting EADs),"[2]; study 7, CDI, MCS, 30 µM",3/3
same,EAD occurrence (proportion of replicates exhibiting EADs),"[2]; study 8, CDI, MCS, 30 µM",5/5
same,EAD occurrence (proportion of replicates exhibiting EADs),"[2]; study 9, CDI, ACA, 10 µM",3/3
same,EAD occurrence (proportion of replicates exhibiting EADs),"[2]; study 9, CDI, ACA, 30 µM",2/3
same,FPDc20 concentration (20% increase in FPDc),[3]; human,10 µM
same,EAD occurrence (proportion of replicates exhibiting EADs),[3]; 10 µM,1/3
same,EAD occurrence (proportion of replicates exhibiting EADs),[3]; 30 µM,2/3
same,FPDc20: median,[4]; [6],10 µM
